The text below walks through data of US11872202B2, “Pleuromutilin cinnamic acid ester compounds with activities against antibiotic-resistant infections” (SHAANXI UNIVERSITY OF SCIENCE AND TECHNOLOGY, priority 2021, dated 2024).

Common to all, as to assay: MIC, micro-broth dilution method
What all share (assay type): cell-based
A general note: In broth dilution the organism is exposed to a series of concentrations in liquid medium.

Assay [1] relates to Methicillin-sensitive Staphylococcus epidermidis ATCC12228. As to the method:
(§1) The minimum inhibitory concentration (MIC) of pleuromutilin cinnamate easters and their starting materials was tested by a micro-broth dilution method, with retamoline, vornimulin and tiamulin as positive controls.
(§2) The experimental strains included Gram-positive bacteria: Methicillin-sensitive Staphylococcus epidermidis ATCC12228, Staphylococcus aureus ATCC29213 and ATCC25923, and Methicillin-resistant Staphylococcus aureus ATCC33591; Gram-negative bacteria: Acinetobacter baumannii ATCC19606 and E. coli Bacillus ATCC25922 (the strains used were from the American type culture collection (ATCC)).

Assay [2] concerns Methicillin-resistant Staphylococcus aureus ATCC33591. The procedure: as §1, §2
Assay [3] has as its system Staphylococcus aureus ATCC29213. The procedure:
as §1, §2

For assay [4], the system named is Staphylococcus aureus ATCC25923. As to the method: as §1, §2
For assay [5], the system named is Escherichia coli ATCC25922. The procedure:
as §1, §2

Assay [6] has as its system Acinetobacter baumannii ATCC19606. As to the method: as §1, §2
Where [7] appears, read: Methicillin-sensitive Staphylococcus epidermidis ATCC12228, 37° C., 20-22 h, read-out: Minimum inhibitory concentration.
The mark [8] stands for this setting: Methicillin-resistant Staphylococcus aureus ATCC33591, 37° C., 20-22 h, read-out: Minimum inhibitory concentration.
[9] abbreviates: Staphylococcus aureus ATCC29213, 37° C., 20-22 h, read-out: Minimum inhibitory concentration.
Setting [10] is: Staphylococcus aureus ATCC25923, 37° C., 20-22 h, read-out: Minimum inhibitory concentration.
Where [11] appears, read: Escherichia coli ATCC25922, 37° C., 20-22 h, read-out: Minimum inhibitory concentration.
Setting [12] is: Acinetobacter baumannii ATCC19606, 37° C., 20-22 h, read-out: Minimum inhibitory concentration.

Structures are written as SMILES. Converted amounts (≈) assume the structure as drawn. Where two headings read alike, the source gives them in different places. Bounds are passed on as bounds.

Turning to `C=C[C@]1(C)C[C@@H](OC(=O)COC(=O)/C=C/c2cccc(F)c2)[C@]2(C)[C@H](C)CC[C@]3(CCC(=O)[C@H]32)[C@@H](C)[C@@H]1O` [Compound 8, (E)-2-(((3aR,4R,5R,8S,9R,12R)-8-hydroxy-4,7,9,12-tetramethyl-3-oxo-7-vinyldecahydro-4,9a-propanocyclopenta[8]annulen-5-yl)oxy)-2-oxoethyl 3-(3-fluorophenyl)acrylate], the MIC was 32 µg/mL (≈ 60.8 µM) in assay [1] (setting [7]); 64 µg/mL (≈ 122 µM) in assay [2] (setting [8]); 32 µg/mL (≈ 60.8 µM) in assay [3] (setting [9]); 16 µg/mL (≈ 30.4 µM) in assay [4] (setting [10]); > 256 µg/mL in assay [5] (setting [11]); > 256 µg/mL in assay [6] (setting [12]).
On to `C=C[C@]1(C)C[C@@H](OC(=O)COC(=O)/C=C/c2ccc3ccccc3c2)[C@]2(C)[C@H](C)CC[C@]3(CCC(=O)[C@H]32)[C@@H](C)[C@@H]1O` [Compound 18, (E)-2-(((3aR,4R,5R,7S,8S,9R,9aS,12R)-8-hydroxy-4,7,9,12-tetramethyl-3-oxo-7-vinyldecahydro-4,9a-propanocyclopenta[8]annulen-5-yl)oxy)-2-oxoethyl 3-(naphthalen-2-yl)acrylate], for which the MIC stood at 32 µg/mL (≈ 57.3 µM) in assay [1] (setting [7]); 128 µg/mL (≈ 229 µM) in assay [2] (setting [8]); 32 µg/mL (≈ 57.3 µM) in assay [3] (setting [9]); 16 µg/mL (≈ 28.6 µM) in assay [4] (setting [10]); 256 µg/mL (≈ 458 µM) in assay [5] (setting [11]); 256 µg/mL (≈ 458 µM) in assay [6] (setting [12]).
Consider `C=C[C@]1(C)C[C@@H](OC(=O)COC(=O)/C=C/c2ccc(C(F)(F)F)cc2F)[C@]2(C)[C@H](C)CC[C@]3(CCC(=O)[C@H]32)[C@@H](C)[C@@H]1O` [Compound 19, (E)-2-(((3aR,4R,5R,8S,9R,12R)-8-hydroxy-4,7,9,12-tetramethyl-3-oxo-7-vinyldecahydro-4,9a-propanocyclopenta[8]annulen-5-yl)oxy)-2-oxoethyl 3-(2-fluoro-4-(trifluoromethyl)phenyl)acrylate], for which the MIC in assay [1] (setting [7]) was 16 µg/mL (≈ 26.9 µM); in assay [2] (setting [8]), 64 µg/mL (≈ 108 µM); in assay [3] (setting [9]), 16 µg/mL (≈ 26.9 µM); in assay [4] (setting [10]), 8 µg/mL (≈ 13.5 µM); in assay [5] (setting [11]) it was 128 µg/mL (≈ 215 µM); in assay [6] (setting [12]), > 256 µg/mL.
Take `C=C[C@]1(C)C[C@@H](OC(=O)COC(=O)/C=C/c2cccc(C(F)(F)F)c2)[C@]2(C)[C@H](C)CC[C@]3(CCC(=O)[C@H]32)[C@@H](C)[C@@H]1O` [Compound 16, (E)-2-(((3aR,4R,5R,8S,9R,12R)-8-hydroxy-4,7,9,12-tetramethyl-3-oxo-7-vinyldecahydro-4,9a-propanocyclopenta[8]annulen-5-yl)oxy)-2-oxoethyl 3-(3-(trifluoromethyl)phenyl)acrylate]: the MIC is 64 µg/mL (≈ 111 µM) in assay [1] (setting [7]); 256 µg/mL (≈ 444 µM) in assay [2] (setting [8]); 64 µg/mL (≈ 111 µM) in assay [3] (setting [9]); 32 µg/mL (≈ 55.5 µM) in assay [4] (setting [10]); 64 µg/mL (≈ 111 µM) in assay [5] (setting [11]); 128 µg/mL (≈ 222 µM) in assay [6] (setting [12]).
With `C=C[C@]1(C)C[C@@H](OC(=O)COC(=O)/C=C/c2cccc(Cl)c2)[C@]2(C)[C@H](C)CC[C@]3(CCC(=O)[C@H]32)[C@@H](C)[C@@H]1O` [Compound 2, (E)-2-(((3aR,4R,5R,8S,9R,12R)-8-hydroxy-4,7,9,12-tetramethyl-3-oxo-7-vinyldecahydro-4,9a-propanocyclopenta[8]annulen-5-yl)oxy)-2-oxoethyl 3-(3-chlorophenyl)acrylate], the MIC in assay [1] (setting [7]) was 8 µg/mL (≈ 14.7 µM); in assay [2] (setting [8]), 32 µg/mL (≈ 58.9 µM); in assay [3] (setting [9]), 32 µg/mL (≈ 58.9 µM); in assay [4] (setting [10]) it was 16 µg/mL (≈ 29.5 µM); in assay [5] (setting [11]) it was 64 µg/mL (≈ 118 µM); in assay [6] (setting [12]) it was 128 µg/mL (≈ 236 µM). For the same compound, the “inhibitory effect compared with the three tested positive controls” value in assay [1] (methicillin-sensitive Staphylococcus epidermidis, statement in words from Table 1) is listed as “better than that of the positive controls”.
As for `C=C[C@]1(C)C[C@@H](OC(=O)COC(=O)/C=C/c2ccc(F)c(F)c2F)[C@]2(C)[C@H](C)CC[C@]3(CCC(=O)[C@H]32)[C@@H](C)[C@@H]1O` [Compound 12, (E)-2-(((3aR,4R,5R,8S,9R,12R)-8-hydroxy-4,7,9,12-tetramethyl-3-oxo-7-vinyldecahydro-4,9a-propanocyclopenta[8]annulen-5-yl)oxy)-2-oxoethyl 3-(2,3,4-trifluorophenyl)acrylate], the MIC in assay [1] (setting [7]) came to 16 µg/mL (≈ 28.4 µM); in assay [2] (setting [8]) it was 128 µg/mL (≈ 228 µM); in assay [3] (setting [9]) it was 64 µg/mL (≈ 114 µM); in assay [4] (setting [10]) it was 32 µg/mL (≈ 56.9 µM); in assay [5] (setting [11]) it was 64 µg/mL (≈ 114 µM); in assay [6] (setting [12]), 128 µg/mL (≈ 228 µM).
On to `C=C[C@]1(C)C[C@@H](OC(=O)COC(=O)/C=C/c2ccc(F)cc2)[C@]2(C)[C@H](C)CC[C@]3(CCC(=O)[C@H]32)[C@@H](C)[C@@H]1O` [Compound 11, (E)-2-(((3aR,4R,5R,8S,9R,12R)-8-hydroxy-4,7,9,12-tetramethyl-3-oxo-7-vinyldecahydro-4,9a-propanocyclopenta[8]annulen-5-yl)oxy)-2-oxoethyl 3-(4-fluorophenyl)acrylate], for which the MIC in assay [1] (setting [7]) amounted to 32 µg/mL (≈ 60.8 µM); in assay [2] (setting [8]) it was 32 µg/mL (≈ 60.8 µM); in assay [3] (setting [9]), 32 µg/mL (≈ 60.8 µM); in assay [4] (setting [10]) it was 16 µg/mL (≈ 30.4 µM); in assay [5] (setting [11]), 128 µg/mL (≈ 243 µM); in assay [6] (setting [12]), 128 µg/mL (≈ 243 µM).
In the case of `C=C[C@]1(C)C[C@@H](OC(=O)COC(=O)/C=C/c2cccc(OCc3ccccc3)c2)[C@]2(C)[C@H](C)CC[C@]3(CCC(=O)[C@H]32)[C@@H](C)[C@@H]1O` [Compound 13, (E)-2-(((3aR,4R,5R,8S,9R,12R)-8-hydroxy-4,7,9,12-tetramethyl-3-oxo-7-vinyldecahydro-4,9a-propanocyclopenta[8]annulen-5-yl)oxy)-2-oxoethyl 3-(3-(benzyloxy)phenyl)acrylate], the MIC was 32 µg/mL (≈ 52.1 µM) in assay [1] (setting [7]); 128 µg/mL (≈ 208 µM) in assay [2] (setting [8]); 32 µg/mL (≈ 52.1 µM) in assay [3] (setting [9]); 16 µg/mL (≈ 26 µM) in assay [4] (setting [10]); > 256 µg/mL in assay [5] (setting [11]); 64 µg/mL (≈ 104 µM) in assay [6] (setting [12]). Also, the “inhibition compared with tiamulin” value in assay [6] (Acinetobacter baumannii, statement in words from Table 1) is listed as “as much as tiamulin”.
Take `C=C[C@]1(C)C[C@@H](OC(=O)COC(=O)/C=C/c2ccccc2C(F)(F)F)[C@]2(C)[C@H](C)CC[C@]3(CCC(=O)[C@H]32)[C@@H](C)[C@@H]1O` [Compound 21]: the MIC in assay [1] (setting [7]) is 64 µg/mL (≈ 111 µM); in assay [2] (setting [8]), 128 µg/mL (≈ 222 µM); in assay [3] (setting [9]) it was 64 µg/mL (≈ 111 µM); in assay [4] (setting [10]), 32 µg/mL (≈ 55.5 µM); in assay [5] (setting [11]) it was > 256 µg/mL; in assay [6] (setting [12]), > 256 µg/mL.
Turning to `C=C[C@]1(C)C[C@@H](OC(=O)COC(=O)/C=C/c2ccc(C#N)cc2)[C@]2(C)[C@H](C)CC[C@]3(CCC(=O)[C@H]32)[C@@H](C)[C@@H]1O` [Compound 6, (E)-2-(((3aR,4R,5R,8S,9R,12R)-8-hydroxy-4,7,9,12-tetramethyl-3-oxo-7-vinyldecahydro-4,9a-propanocyclopenta[8]annulen-5-yl)oxy)-2-oxoethyl 3-(4-cyanophenyl)acrylate], the MIC was 64 µg/mL (≈ 120 µM) in assay [1] (Staphylococcus epidermidis, ATCC12228, read-out: Minimum inhibitory concentration); 64 µg/mL (≈ 120 µM) in assay [2] (Staphylococcus aureus, ATCC33591, read-out: Minimum inhibitory concentration); 64 µg/mL (≈ 120 µM) in assay [3] (Staphylococcus aureus, ATCC29213, read-out: Minimum inhibitory concentration); 32 µg/mL (≈ 60 µM) in assay [4] (Staphylococcus aureus, ATCC25923, read-out: Minimum inhibitory concentration); > 256 µg/mL in assay [5] (Escherichia coli, ATCC25922, read-out: Minimum inhibitory concentration); > 256 µg/mL in assay [6] (Acinetobacter baumannii, ATCC19606, read-out: Minimum inhibitory concentration).
Take `C=C[C@]1(C)C[C@@H](OC(=O)COC(=O)/C=C/c2ccc(OC)c(OC)c2)[C@]2(C)[C@H](C)CC[C@]3(CCC(=O)[C@H]32)[C@@H](C)[C@@H]1O` [Compound 7, (E)-2-(((3aR,4R,5R,8S,9R,12R)-8-hydroxy-4,7,9,12-tetramethyl-3-oxo-7-vinyldecahydro-4,9a-propanocyclopenta[8]annulen-5-yl)oxy)-2-oxoethyl 3-(3,4-dimethoxyphenyl)acrylate]: the MIC was 16 µg/mL (≈ 28.1 µM) in assay [1] (setting [7]); 32 µg/mL (≈ 56.3 µM) in assay [2] (setting [8]); 8 µg/mL (≈ 14.1 µM) in assay [3] (setting [9]); 4 µg/mL (≈ 7.03 µM) in assay [4] (setting [10]); 64 µg/mL (≈ 113 µM) in assay [5] (setting [11]); > 256 µg/mL in assay [6] (setting [12]).
With `C=C[C@]1(C)C[C@@H](OC(=O)COC(=O)/C=C/c2cc(Br)ccc2F)[C@]2(C)[C@H](C)CC[C@]3(CCC(=O)[C@H]32)[C@@H](C)[C@@H]1O` [Compound 9, (E)-2-(((3aR,4R,5R,8S,9R,12R)-8-hydroxy-4,7,9,12-tetramethyl-3-oxo-7-vinyldecahydro-4,9a-propanocyclopenta[8]annulen-5-yl)oxy)-2-oxoethyl 3-(5-bromo-2-fluorophenyl)acrylate], the MIC is 64 µg/mL (≈ 106 µM) in assay [1] (setting [7]); 64 µg/mL (≈ 106 µM) in assay [2] (setting [8]); 32 µg/mL (≈ 52.8 µM) in assay [3] (setting [9]); 16 µg/mL (≈ 26.4 µM) in assay [4] (setting [10]); 64 µg/mL (≈ 106 µM) in assay [5] (setting [11]); 128 µg/mL (≈ 211 µM) in assay [6] (setting [12]).
Regarding `C=C[C@]1(C)C[C@@H](OC(=O)COC(=O)/C=C/c2ccccc2)[C@]2(C)[C@H](C)CC[C@]3(CCC(=O)[C@H]32)[C@@H](C)[C@@H]1O` [Compound 3, 2-(((3aR,4R,5R,8S,9R,12R)-8-hydroxy-4,7,9,12-tetramethyl-3-oxo-7-vinyldecahydro-4,9a-propanocyclopenta[8]annulen-5-yl)oxy)-2-oxoethyl cinnamate], the MIC is 16 µg/mL (≈ 31.5 µM) in assay [1] (setting [7]); 32 µg/mL (≈ 62.9 µM) in assay [2] (setting [8]); 16 µg/mL (≈ 31.5 µM) in assay [3] (setting [9]); 4 µg/mL (≈ 7.86 µM) in assay [4] (setting [10]); 128 µg/mL (≈ 252 µM) in assay [5] (setting [11]); > 256 µg/mL in assay [6] (setting [12]).
